# According to patent publication EP4748837A1, “AROMATIC AMIDE DERIVATIVE, AND PREPARATION METHOD THEREFOR AND USE THEREOF” (Zhejiang Hisun Pharmaceutical Co., Ltd., priority 2023, dated 2025):
# Key:
# [1] = test system: OVCAR-3 human ovarian adenocarcinoma tumor mass; test: Pharmacodynamic testing in subcutaneous OVCAR-3 xenograft model; format: in vivo, BALB/c nude mice; settings: for inhibitory effect on tumor growth (in words): 8 mg/kg, compared with the solvent control group and AMG650; for TGI% / Relative tumor volume (x±S) / Tumor volume (x±S): 35 days after administration, 8 mg/kg po QD, BALB/c nude mice; for Relative tumor volume (x±S) / Tumor volume (x±S): mean value ± standard error; for Tumor volume (x±S): in mm³ (unit assumed)
# Description: Anti-tumor effects and Safeties of the Compounds 47 and 53 of the present invention in a BALB/c nude mouse animal model subjected to subcutaneous xenotransplantation of OVCAR-3 human ovarian adenocarcinoma tumor mass were evaluated.
# BALB/c; nude mice, female, 6-7 weeks old, purchased from Jiangsu Gempharmatech Biotechnology Co., Ltd.
# Mice in a solvent control group were given DMA: CrEL: 5%GS=10: 10: 80 (v: v: v). AMG650: a proper amount of AMG-650 was weigned, proper amounts of DMA, CrEL and 5% GS were added in sequence, and the mixture was well mixed by ultrasonic vortex to prepare 0.8 mg/mL drug preparations respectively, wherein DMA: CrEL : 5% GS=10: 10: 80 (v: v: v).
# Compound 47: a proper amount of Compound 47 was added with proper amounts of DMA, CrEL and 5% GS in sequence, and evenly mixed by ultrasonic vortex to prepare 0.8 mg/mL drug preparations respectively, wherein DMA, CrEL and 5% GS=10: 10: 80 (v: v: v).
# Compound 53: a proper amount of Compound 53 was weighed, proper amounts of DMA, CrEL and 5% GS were added in sequence, and the mixture was well mixed by ultrasonic vortex to prepare 0.8 mg/mL drug preparations respectively, wherein DMA: CrEL : 5% GS=10: 10: 80 (v: v: v).
# An appropriate OVCAR-3 tumor-bearing animal was selected, and a 1 mm×1 mm×1 mm OVCAR-3 tumor mass was acquired aseptically and placed into normal saline for later use, which was used for subcutaneous tumor inoculation in a right side of back of the BALB/c nude mice.
# About 1 mm×1 mm×1 mm OVCAR-3 tumor mass was subcutaneously inoculated in the right side of back of the female BALB/c nude mice. When an average tumor volume reached about 100-250 mm^3, the mice were randomly grouped based on tumor size, with 6 mice in each group.
# Animals in each group were given the test compound once per day according to an animal weight at a fixed time every day by oral administration (po), the animals started to be administered with the test compound for the first time on the day of grouping for 35 consecutive days, and the animal weight was recorded every day.
# The 1st group (G1) was a solvent control group; and
# The 2nd-4th groups […] were orally administered with AMG-650, Compound 47 and Compound 53 at an administration dosage of 8 mg/kg once per day (QD).
# [2] = biological target: T1, recombinant human KIF18A (Homo sapiens, UniProt Q8NI77); test: Inhibition of KIF18A enzyme activity (ADP-Glo assay); format: biochemical; settings: recombinant human KIF18A 100 nM, ATP 60 µM, tubulin, paclitaxel; read-out: IC50
# T1 construct: purchased GenScript
# [3] = test system: OVCAR-3 cells; test: Inhibition of OVCAR-3 cell proliferation (CellTiter-Glo cell viability); format: cell-based; settings: Homo sapiens; OVCAR-3 cells (TP53 R248Q mutation), 72 hours culture with compound; read-out: IC50
# In short: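 OVCAR-3 cells (TP53 R248Q) in RPMI 1640 with 10% FBS were seeded at 1000 cells/well, grown overnight, then exposed to compound (final 1000 nM–0.015 nM) for 72 h at 37°C, 5% CO2. Viability was read by CellTiter-Glo luminescence. IC50 came from nonlinear regression of inhibition relative to 0.3% DMSO control.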
# T1 sequence (Q8NI77 whole entry): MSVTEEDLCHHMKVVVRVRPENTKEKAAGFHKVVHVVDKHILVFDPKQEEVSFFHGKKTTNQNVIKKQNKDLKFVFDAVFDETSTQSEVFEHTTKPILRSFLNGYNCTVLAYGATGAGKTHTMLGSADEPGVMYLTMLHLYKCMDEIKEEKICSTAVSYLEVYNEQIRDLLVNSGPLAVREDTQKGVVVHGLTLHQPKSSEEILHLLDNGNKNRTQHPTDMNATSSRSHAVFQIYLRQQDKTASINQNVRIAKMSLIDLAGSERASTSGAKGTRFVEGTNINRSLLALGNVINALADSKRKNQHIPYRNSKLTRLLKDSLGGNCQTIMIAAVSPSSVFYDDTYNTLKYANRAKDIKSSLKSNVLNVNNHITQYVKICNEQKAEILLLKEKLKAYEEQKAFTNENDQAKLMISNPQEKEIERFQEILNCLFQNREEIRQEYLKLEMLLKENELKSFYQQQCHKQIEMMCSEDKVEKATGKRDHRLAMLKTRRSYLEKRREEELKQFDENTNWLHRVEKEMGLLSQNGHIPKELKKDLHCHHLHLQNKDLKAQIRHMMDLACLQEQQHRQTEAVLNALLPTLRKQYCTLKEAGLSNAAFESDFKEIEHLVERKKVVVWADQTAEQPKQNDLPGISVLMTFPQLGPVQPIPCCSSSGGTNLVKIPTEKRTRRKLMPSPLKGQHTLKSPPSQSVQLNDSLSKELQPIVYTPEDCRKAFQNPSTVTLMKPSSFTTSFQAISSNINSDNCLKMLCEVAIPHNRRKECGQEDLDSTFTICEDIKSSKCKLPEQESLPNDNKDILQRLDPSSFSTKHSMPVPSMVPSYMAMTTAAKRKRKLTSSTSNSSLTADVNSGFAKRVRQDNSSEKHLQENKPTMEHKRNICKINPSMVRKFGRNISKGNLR
# T1 sequence (P68363 whole entry partner): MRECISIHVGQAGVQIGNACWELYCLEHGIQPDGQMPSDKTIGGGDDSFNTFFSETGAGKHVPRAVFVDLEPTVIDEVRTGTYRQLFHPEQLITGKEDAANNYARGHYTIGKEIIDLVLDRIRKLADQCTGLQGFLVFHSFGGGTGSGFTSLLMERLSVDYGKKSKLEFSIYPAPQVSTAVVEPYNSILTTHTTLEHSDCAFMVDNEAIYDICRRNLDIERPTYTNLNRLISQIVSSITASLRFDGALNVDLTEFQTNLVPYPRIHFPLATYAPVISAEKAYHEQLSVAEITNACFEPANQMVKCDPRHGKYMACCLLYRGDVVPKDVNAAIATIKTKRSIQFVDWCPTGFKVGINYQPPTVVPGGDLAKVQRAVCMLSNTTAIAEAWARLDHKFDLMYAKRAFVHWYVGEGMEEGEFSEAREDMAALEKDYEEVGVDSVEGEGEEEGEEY
# T1 sequence (Q9BVA1 whole entry partner): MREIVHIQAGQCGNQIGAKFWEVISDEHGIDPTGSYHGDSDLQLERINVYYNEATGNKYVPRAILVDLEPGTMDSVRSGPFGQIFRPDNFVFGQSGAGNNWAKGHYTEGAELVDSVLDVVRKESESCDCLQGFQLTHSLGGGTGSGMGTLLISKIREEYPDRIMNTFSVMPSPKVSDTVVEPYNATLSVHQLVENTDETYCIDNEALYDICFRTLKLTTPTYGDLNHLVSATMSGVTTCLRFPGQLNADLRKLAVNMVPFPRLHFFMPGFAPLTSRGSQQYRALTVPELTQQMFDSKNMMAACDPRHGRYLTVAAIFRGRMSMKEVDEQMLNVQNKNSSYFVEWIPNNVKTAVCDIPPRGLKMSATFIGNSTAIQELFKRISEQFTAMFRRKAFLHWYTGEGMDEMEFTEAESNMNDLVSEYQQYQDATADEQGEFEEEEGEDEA
Compound,inhibitory effect on tumor growth (in words) [1],TGI% [1] [%],Relative tumor volume (x±S) [1],Tumor volume (x±S) [1],IC50 [2] [nM],IC50 [3] [nM]
"CCS(=O)(=O)Nc1ccc(C(=O)Nc2ccc(-c3ncn(C)n3)c(OCC(F)(F)F)c2)c(N2CCC3(CC2)CC3)c1 [Example 47, 4-(ethylsulfonamido)-N-(4-(1-methyl-1H-1,2,4-triazol-3-yl)-3-(2,2,2-trifluoroethoxy)pheny 1)-2-(6-azaspiro[2.5]octan-6-yl)benzamide]",more significant inhibitory effect on tumor growth,95.5,0.22±0.11,40±20,155,5.8
"CCS(=O)(=O)Nc1ccc(C(=O)Nc2ccc(-c3ncccn3)c(OCC(F)(F)F)c2)c(N2CCC3(CC2)CC3)c1 [Example 53, 4-(ethylsulfonamido)-N-(4-(pyrimidin-2-yl)-3-(2,2,2-trifluoroethoxy)phenyl)-2-(6-azaspiro[2.5]octan-6-yl)benzamide]",more significant inhibitory effect on tumor growth,98.0,0.10±0.04,21±9,142,9.5
